Results taken from US7687494B2, “Substituted spirobenzazepines” (Janssen Pharmaceutica NV, priority 2003, dated 2010).

Experiments:
human V1a receptor [1] = molecular target: T1, human V1a receptor (Homo sapiens, UniProt P37288); assay: In-vitro binding assay, 3H-arginine-8-vasopressin, V1a membranes; settings: V1a (first value of V1a/V2)
Method: (§1) Assay buffer is 50 mM Tris-Cl, 5 mM MgCl2, 0.1% BSA (pH 7.5) containing 5 μg/ml of aprotinin, leupeptin, pepstatin, 50 μg/ml bacitracin, and 1 mM Pefabloc (4-(2-Aminoethyl)-benzenesulfonyl fluoride, hydrochloride manufactured by Roche Diagnostics Corporation, Indianapolis, Ind. and distributed by Boehringer Mannheim). H3 vasopressin is ^3H-arginine-8-vasopressin (NEN Life Sciences, Boston, Mass.; 68.5 Ci/mmol, final concentration in assay is 0.65-0.75 nM). Into wells of 96-well round bottom polypropylene plates are added buffer, test compound, membrane (containing human V1a or V2 receptor), and H3 vasopressin. The reaction plates are allowed to sit at room temperature for one hour. The samples are filtered through Unifilter GF/C plates (PerkinElmer Life Sciences, Boston, Mass.) presoaked in 0.3 polyethyleneimine. The plates are washed 5 times with cold physiological saline containing 0.05% Tween 20. After drying, the bottom of the filter plates are sealed and 0.025 ml of Microscint-20 (Packard Instrument Co, Meriden, Conn.) is added to each filter. The top of the plate is sealed, and the plate is counted. Non-specific binding is determined by the addition of 1.25 μM arginine-8-vasopressin in those wells. % Inh. is calculated
(§2) [formula] as follows: (B) V1a Vasopressin Receptor Functional Activity

human V2 receptor [2] = molecular target: T2, human V2 receptor (Homo sapiens, UniProt P30518); assay: In-vitro binding assay, 3H-arginine-8-vasopressin, V2 membranes; settings: V2 (second value of V1a/V2)
T2 sequence (P30518 whole entry): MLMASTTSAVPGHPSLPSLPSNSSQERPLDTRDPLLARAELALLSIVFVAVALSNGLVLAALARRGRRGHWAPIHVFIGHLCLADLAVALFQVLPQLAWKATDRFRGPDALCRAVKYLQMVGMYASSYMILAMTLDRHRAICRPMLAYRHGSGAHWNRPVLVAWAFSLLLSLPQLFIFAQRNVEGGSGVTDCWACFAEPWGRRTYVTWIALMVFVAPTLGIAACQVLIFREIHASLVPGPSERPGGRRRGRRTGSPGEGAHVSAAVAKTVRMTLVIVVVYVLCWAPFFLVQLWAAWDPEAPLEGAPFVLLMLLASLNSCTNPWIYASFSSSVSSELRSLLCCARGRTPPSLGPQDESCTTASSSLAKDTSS
Method: as §1, §2

human V1a receptor [3] = molecular target: T1, human V1a receptor; assay: V1a vasopressin receptor functional activity (intracellular calcium mobilization, FLIPR, V1a-HEK cells); type: cell-based; settings: V1a (first value of V1a/V2); vasopressin-challenged transfected HEK-293 cells
Method: The V1a receptor is a G-protein coupled receptor, which upon activation triggers an increase in intracellular calcium mobilization. To evaluate compounds for their functional V1a receptor activity, HEK-293 cells were transfected with the human V1a receptor (V1a-HEK cells). HEK-293 cells were grown in DMEM (Dulbecco's modified Eagle Media) supplemented with 10% FBS and glutamine. HEK-cells were passed biweekly by trypsinization and seeded into 96 well plates at 33,000 cells per well. HEK-293 cells were transfected with human V1a receptor DNA using DMRIE-C reagent from Life Technologies (Carlsbad, Calif.). Stable lines were generated by selecting cells grown in culture media containing geneticin. After growing in Packard Clear-View black 96 well plates for 4-6 days, V1a-HEK cells were loaded with the calcium-sensitive fluorescence dye, FLUO-3 AM. Changes in intracellular calcium mobilization were measured by quantitating intracellular fluorescence using FLIPR (Fluorometric Imaging Plate Reader; Molecular Devices, Sunnyvale, Calif.). Test compounds were first added to the cells and the resulting changes in fluorescence measured to detect receptor agonistic activity. Five minutes later the cells were challenged with vasopressin to test compounds for their antagonistic activity. Receptor antagonists inhibit the ability of vasopressin to stimulate increases in intracellular fluorescence. IC50's were calculated.

human V2 receptor [4] = molecular target: T2, human V2 receptor; assay: V2 vasopressin receptor functional activity (cAMP accumulation, V2-HEK cells); type: cell-based; design: expressed in transfected cells; host or cells: HEK-293; settings: V2 (second value of V1a/V2); vasopressin-stimulated cAMP in transfected HEK-293 cells
Method: The V2 receptor is also a G-protein coupled receptor which when activated induces an increase in cAMP turnover. Antagonism against the V2 receptor is determined by measuring cAMP accumulation in transfected HEK-293 cells expressing the human V-2 receptor (V2-HEK cells). Compounds are tested for their ability to block the stimulatory effects of vasopressin on cAMP accumulation. The cell content of cAMP is measured by radioimmunoassay using NEN flashplates.

T1 sequence (P37288 whole entry): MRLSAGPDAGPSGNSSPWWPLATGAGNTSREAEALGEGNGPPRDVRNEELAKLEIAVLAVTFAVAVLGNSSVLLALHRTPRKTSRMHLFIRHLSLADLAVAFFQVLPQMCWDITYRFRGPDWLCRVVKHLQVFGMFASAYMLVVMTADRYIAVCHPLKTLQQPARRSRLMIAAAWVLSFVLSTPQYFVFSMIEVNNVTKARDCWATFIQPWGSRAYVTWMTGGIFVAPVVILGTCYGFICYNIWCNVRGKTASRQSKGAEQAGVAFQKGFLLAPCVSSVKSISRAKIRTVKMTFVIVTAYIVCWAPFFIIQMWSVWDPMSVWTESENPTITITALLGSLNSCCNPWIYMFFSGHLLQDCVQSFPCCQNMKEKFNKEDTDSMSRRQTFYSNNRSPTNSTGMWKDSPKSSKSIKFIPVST

| IC50 (human V1a receptor [1]) [nM] | IC50 (human V2 receptor [2]) [nM] | IC50 (human V1a receptor [3]) [nM] | IC50 (human V2 receptor [4]) [nM] | Compound |
| --- | --- | --- | --- | --- |
| 5 | 30 | 38 | 52 | COc1cc(C(=O)N2CC[C@]3(C=C(C(=O)O)CC3)Cc3ccccc32)ccc1NC(=O)c1cc(F)ccc1Cl [Compound 29, (R)-4-(2-Chloro-5-fluorobenzoyl-3-methoxy-4-aminobenzoyl)-4-aza-3′-(carboxy)-[6,4]-spiro-[5,6]-benzoundec-2′-ene] |
| 5 | 11 | 4 |  | CN(C)CCNC(=O)C1=CC2(CC1)CCN(C(=O)c1ccc(NC(=O)c3ccccc3-c3ccccc3)cc1)c1ccccc1C2 (racemic) [A, 4-(2-phenylbenzoyl-4-aminobenzoyl)-3′-[2-(N,N-dimethylaminoethylcarbony)]-4-aza-[6,4]-spiro-[5,6]-benzoundec-2′-ene, reference compound] |
| 13 | 53 | 380 | 100 | O=C(O)C1=C[C@@]2(CC1)CCN(C(=O)c1ccc(NC(=O)c3cc(F)ccc3Cl)cc1)c1ccccc1C2 [reference compound] |
| 8 | 71 | 50 | 150 | CCOc1cc(C(=O)N2CC[C@]3(C=C(C(=O)O)CC3)Cc3ccccc32)ccc1NC(=O)c1cc(F)ccc1Cl [Compound 31, (R)-4-(2-Chloro-5-fluorobenzoyl-3-ethoxy-4-aminobenzoyl)-4-aza-3′-carboxy-[6,4]-spiro-[5,6]-benzoundec-2′-ene] |
